From patent US20260232767A1, “INTERLEUKIN-23 RECEPTOR ANTAGONIST PEPTIDES FOR USE IN THE TREATMENT OF PSORIASIS” (Janssen Pharmaceutica NV, priority 2023, published 2026)

System: subjects with moderate-to-severe plaque psoriasis
Experiment: Safety, adverse events, Example 2 through Week 56
Type: in vivo, human
Text: The LTE safety analysis was based on randomized participants in Example who entered the present long-term extension study and received at least one dose of study intervention (including a partial dose) during the study period.

[1] = 25 mg BID, Week 16 through Week 56
[2] = 25 mg BID, LTE Safety analysis set

CC(=O)NCCCC[C@@H]1NC(=O)[C@H](Cc2c[nH]c3c(C)cccc23)NC(=O)[C@H]([C@@H](C)O)NC(=O)[C@H](CC(N)=O)NC(=O)[C@@H](NC(C)=O)C(C)(C)SSC(C)(C)[C@@H](C(=O)N[C@@H](Cc2ccc(OCCN)cc2)C(=O)N[C@@H](Cc2ccc3ccccc3c2)C(=O)NC2(C(=O)N[C@@H](CCC(=O)O)C(=O)N[C@@H](CC(N)=O)C(=O)N[C@@H](Cc3cccnc3)C(=O)N(C)CC(N)=O)CCOCC2)NC1=O [IL-23 receptor antagonist peptide, Ac-[Pen]*-N-T-[W(7-Me)]-[Lys(Ac)]-[Pen]*-Phe[4-(2-aminoethoxy)]-[2-Nal]-[THP]-E-N-[3-Pal]-Sarc-NH2 (*[Pen]-[Pen]* formdisulfidebond)]
(2.5%): Subjects with treatment-emergent AE: Endocrine disorders (%) [1] | Subjects with treatment-emergent AE: Eye disorders (%) [1] | Subjects with treatment-emergent AE: Eyelid skin dryness (%) [1] | Subjects with treatment-emergent AE: Goiter (%) [1] | Subjects with treatment-emergent AE: Insomnia (%) [1] | Subjects with treatment-emergent AE: Psychiatric disorders (%) [1] | Subjects with treatment-emergent AE: Ventricular dysfunction (%) [1]
(2.4%): Acrochordon: % of subjects (25 mg BID, through Week 56) | Asthenia: % of subjects (25 mg BID, through Week 56) | Cardiac disorders: % of subjects (25 mg BID, through Week 56) | Chills: % of subjects (25 mg BID, through Week 56) | Dermatitis contact: % of subjects (25 mg BID, through Week 56) | Diabetes mellitus: % of subjects (25 mg BID, through Week 56) | Endocrine disorders: % of subjects (25 mg BID, through Week 56) | Eye disorders: % of subjects (25 mg BID, through Week 56) | Eyelid skin dryness: % of subjects (25 mg BID, through Week 56) | Goiter: % of subjects (25 mg BID, through Week 56) | Hyperlipidemia: % of subjects (25 mg BID, through Week 56) | Influenza like illness: % of subjects (25 mg BID, through Week 56) | Insomnia: % of subjects (25 mg BID, through Week 56)
1: Number of subjects with treatment-emergent AE: Endocrine disorders [1] | Number of subjects with treatment-emergent AE: Eye disorders [1] | Number of subjects with treatment-emergent AE: Eyelid skin dryness [1] | Number of subjects with treatment-emergent AE: Goiter [1] | Number of subjects with treatment-emergent AE: Insomnia [1] | Number of subjects with treatment-emergent AE: Psychiatric disorders [1] | Acrochordon: number of subjects (25 mg BID, through Week 56) | Asthenia: number of subjects (25 mg BID, through Week 56) | Cardiac disorders: number of subjects (25 mg BID, through Week 56) | Chills: number of subjects (25 mg BID, through Week 56) | Dermatitis contact: number of subjects (25 mg BID, through Week 56) | Diabetes mellitus: number of subjects (25 mg BID, through Week 56) | Endocrine disorders: number of subjects (25 mg BID, through Week 56) | Eye disorders: number of subjects (25 mg BID, through Week 56) | Eyelid skin dryness: number of subjects (25 mg BID, through Week 56) | Goiter: number of subjects (25 mg BID, through Week 56) | Hyperlipidemia: number of subjects (25 mg BID, through Week 56) | Influenza like illness: number of subjects (25 mg BID, through Week 56) | Insomnia: number of subjects (25 mg BID, through Week 56)
(4.9%): General disorders and administration site conditions: % of subjects (25 mg BID, through Week 56) | Hypertension: % of subjects (25 mg BID, through Week 56)
0: Subjects with Bronchitis bacterial | Number of subjects with treatment-emergent AE: Cholelithiasis [1] | Number of subjects with treatment-emergent AE: Ear and labyrinth disorders [1] | Number of subjects with treatment-emergent AE: Hepatobiliary disorders [1] | Number of subjects with treatment-emergent AE: Hypertransaminasemia [1] | Number of subjects with treatment-emergent AE: Immune system disorders [1] | Number of subjects with treatment-emergent AE: Ocular cyst [1] | Number of subjects with treatment-emergent AE: Retinal vein occlusion [1] | Number of subjects with treatment-emergent AE: Seasonal allergy [1] | Number of subjects with treatment-emergent AE: Vertigo [1] | Subjects with 1 or more Serious Infections and infestations [2] | Subjects with adverse event: Alanine aminotransferase increased [2] | Subjects with adverse event: Arthralgia [2] | Subjects with adverse event: Aspartate aminotransferase increased [2] | Subjects with adverse event: Vomiting [2] | Subjects with serious adverse event: Cerebrovascular accident [2] | Subjects with serious adverse event: Coronary artery disease [2] | Subjects with serious adverse event: Diverticulitis [2] | Subjects with serious adverse event: Foot deformity [2] | Subjects with serious adverse event: Intervertebral disc protrusion [2] | Subjects with serious adverse event: Non-cardiac chest pain [2] | Subjects with serious adverse event: Uterine leiomyoma [2] | Subjects with AE leading to discontinuation: Alanine aminotransferase increased (25 mg BID, Week 16-56) | Subjects with AE leading to discontinuation: Aspartate aminotransferase increased (25 mg BID, Week 16-56) | Subjects with AE leading to discontinuation: Ear and labyrinth disorders (25 mg BID, Week 16-56) | Subjects with AE leading to discontinuation: Gamma-glutamyltransferase increased (25 mg BID, Week 16-56) | Subjects with AE leading to discontinuation: Investigations (25 mg BID, Week 16-56) | Subjects with AE leading to discontinuation: Vertigo (25 mg BID, Week 16-56) | Subjects with AE leading to discontinuation: Vomiting (25 mg BID, Week 16-56) | Subjects with COVID-19 associated AE of interest: SARS-CoV-2 test positive (25 mg BID, Week 16-56) | Subjects with treatment-emergent AE: Alanine aminotransferase increased (25 mg BID, Week 16-56) | Subjects with treatment-emergent AE: Arthralgia (25 mg BID, Week 16-56) | Subjects with treatment-emergent AE: Aspartate aminotransferase increased (25 mg BID, Week 16-56) | Subjects with treatment-emergent AE: Vomiting (25 mg BID, Week 16-56) | Subjects with treatment-emergent serious AE: Cerebrovascular accident (25 mg BID, Week 16-56) | Subjects with treatment-emergent serious AE: Coronary artery disease (25 mg BID, Week 16-56) | Subjects with treatment-emergent serious AE: Diverticulitis (25 mg BID, Week 16-56) | Subjects with treatment-emergent serious AE: Foot deformity (25 mg BID, Week 16-56) | Subjects with treatment-emergent serious AE: General disorders and administration site conditions (25 mg BID, Week 16-56) | Subjects with treatment-emergent serious AE: Infections and infestations (25 mg BID, Week 16-56) | Subjects with treatment-emergent serious AE: Intervertebral disc protrusion (25 mg BID, Week 16-56) | Subjects with treatment-emergent serious AE: Musculoskeletal and connective tissue disorders (25 mg BID, Week 16-56) | Subjects with treatment-emergent serious AE: Neoplasms benign, malignant and unspecified (incl cysts and polyps) (25 mg BID, Week 16-56) | Subjects with treatment-emergent serious AE: Nervous system disorders (25 mg BID, Week 16-56) | Subjects with treatment-emergent serious AE: Non-cardiac chest pain (25 mg BID, Week 16-56) | Subjects with treatment-emergent serious AE: Uterine leiomyoma (25 mg BID, Week 16-56) | Actinic keratosis: number of subjects (25 mg BID, through Week 56) | Alopecia: number of subjects (25 mg BID, through Week 56) | Asthma: number of subjects (25 mg BID, through Week 56) | Atrioventricular block first degree: number of subjects (25 mg BID, through Week 56) | Basal cell carcinoma: number of subjects (25 mg BID, through Week 56) | Blood and lymphatic system disorders: number of subjects (25 mg BID, through Week 56) | Bronchitis chronic: number of subjects (25 mg BID, through Week 56) | Bundle branch block right: number of subjects (25 mg BID, through Week 56) | Cholelithiasis: number of subjects (25 mg BID, through Week 56) | Chronic obstructive pulmonary disease: number of subjects (25 mg BID, through Week 56) | Coronary artery disease: number of subjects (25 mg BID, through Week 56) | Cough: number of subjects (25 mg BID, through Week 56) | Decreased appetite: number of subjects (25 mg BID, through Week 56) | Depression: number of subjects (25 mg BID, through Week 56) | Dermal cyst: number of subjects (25 mg BID, through Week 56) | Dermatitis acneiform: number of subjects (25 mg BID, through Week 56) | Diffuse alopecia: number of subjects (25 mg BID, through Week 56) | Dysuria: number of subjects (25 mg BID, through Week 56) | Ear and labyrinth disorders: number of subjects (25 mg BID, through Week 56) | Fatigue: number of subjects (25 mg BID, through Week 56) | Haemochromatosis: number of subjects (25 mg BID, through Week 56) | Hand dermatitis: number of subjects (25 mg BID, through Week 56) | Hematuria: number of subjects (25 mg BID, through Week 56) | Hepatobiliary disorders: number of subjects (25 mg BID, through Week 56) | Hypercholesterolemia: number of subjects (25 mg BID, through Week 56) | Hyperglycemia: number of subjects (25 mg BID, through Week 56) | Hypertransaminasemia: number of subjects (25 mg BID, through Week 56) | Hypertriglyceridemia: number of subjects (25 mg BID, through Week 56) | Hypoacusis: number of subjects (25 mg BID, through Week 56) | Immune system disorders: number of subjects (25 mg BID, through Week 56) | Intertrigo: number of subjects (25 mg BID, through Week 56)
2: General disorders and administration site conditions: number of subjects (25 mg BID, through Week 56) | Hypertension: number of subjects (25 mg BID, through Week 56)
